For experiment [1], the system named is human liver cancer HepG2 cell subcutaneous xenograft tumor. The experiment is described as follows: Pharmacodynamic assessment, HepG2 xenograft model. The class given is in vivo, BALB/c nude mouse. Conditions: 4 mg/kg iv biw×3, day 36 after grouping. As for the experimental part: Objective: Pre-clinical assessment of the efficacy of CR202 series of compounds in BALB/c nude mouse model with human liver cancer HepG2 cell subcutaneous xenograft tumor with no FOLR1 or PSMA receptor expression.
Procedures: 0.1 mL (10×10^6 cells) of HepG2 cells was subcutaneously inoculated on the right back of each mouse, and the mice were randomized into a modeling control group and treatment groups after the mean tumor volume was approximately 100-150 mm^3. The treatment was started on the first day of grouping. Before the start of administration, the animals were weighed, and the tumor volume was measured with a vernier caliper. After the grafting of tumor cells, the routine monitoring included the effect on tumor growth and the effect of treatment on the normal behavior of the animals, specifically the activity, food and water intake, weight gain or loss, the eyes, the hair, and other abnormal conditions. After the administration was started, the body weight and tumor size of the mice were measured periodically. The calculation formula for tumor volume: Tumor volume V (mm^3)=1/2×(a×b^2) (where a denotes the long diameter and b notes the short diameter). The calculation formula for the tumor growth inhibition, TGI (%), is TGI %=(1−T/C)×100% (T and C are the mean tumor volume of the treatment group and control group, respectively, at a particular time point).

Experiment [2] has as its system human prostate cancer 22RV1 cell subcutaneous xenograft tumor. Put plainly: Pharmacodynamic assessment, 22RV1 xenograft model. Conditions: 4 mg/kg iv biw×3, day 31 after grouping. The format is in vivo. The source says:
Objective: Pre-clinical pharmacodynamic study of compounds for treating BALB/c nude mouse model with 22RV1 cell subcutaneous xenograft tumor (overexpressing PSMA).
Procedures: 22RV1 tumor mass was grafted subcutaneously at the right back of the mice, and the mice were randomized after the mean tumor volume was 150 mm^3. After administration, the animals were monitored daily for health conditions and death, and the routine examinations included observation of the effect on tumor growth and the effect of the treatment on the daily performance of the animals, such as behavioral activities, food and water intake, weight changes (measured once every other day), appearance, or other abnormal conditions. Whether the tumor growth was inhibited or delayed or the tumor was cured was also observed. The tumor volume was measured periodically. The tumor volume was calculated using the following formula: V=1/2×(a×b^2), where a and b denote the long diameter and short diameter of the tumor, respectively.

Among the data in patent publication US20260007756A1, “COMPOUND AND USE THEREOF” (COHERENT BIOPHARMA (SUZHOU) LIMITED, priority 2022, published 2026) are Mean tumor volume and TGI values, retold here.

The structures appear in SMILES notation.

Consider `CC[C@@H]1C(=O)N(C)c2cnc(Nc3ccc(-c4cn([C@H]5CC[C@@H](NCCOCCC#Cc6cccc7c6CN(C6CCC(=O)NC6=O)C7=O)CC5)nn4)cc3OC)nc2N1C1CCCC1` (stereo partly shown) [CR20274], for which, in experiment [1], the Mean tumor volume is on record as 1329.84 mm^3 and the tumour growth inhibition (TGI) (in general, how far tumour growth fell short of that in controls) is given as 22.99%. In experiment [2], this compound came in with a Mean tumor volume of 1274.47 mm^3 and a TGI of 31.55%.
